Results published in patent publication US6423727B1, “Certain thiol inhibitors of endothelin-converting enzyme” (Novartis AG, priority 1998, dated 2002).
Where a name gives a salt, the structure may show the parent alone.

Compound	melting point
O=C(O)[C@H](Cc1ccc(-c2ccccc2)cc1)NC(=O)C1(NC(=O)[C@@H](S)Cc2ccc(-c3ccccc3)cc2)CCCC1	187 to 189 °C
CC[C@@H](C)[C@H](S)C(=O)NC1(C(=O)NC(Cc2ccc(-c3cncnc3)cc2)C(=O)O)CCCC1 (stereo in doubt) (as salt: hydrochloride) [2-{[1-(2-Mercapto-3-methyl-pentanoylamino)-cyclopentanecarbonyl]-amino}-3-(4-pyrimidin-5-yl-phenyl)-propionic acid hydrochloride]	170 to 184 °C
COc1cccc(-c2ccc(CC(NC(=O)C3(NC(=O)[C@@H](S)C(C)C)CCCC3)C(=O)O)cc2)c1 (stereo in doubt) [2-{[1-(2-Mercapto-3-methyl-butanoylamino)-cyclopentanecarbonyl]-amino}-3-(3′-methoxy-biphenyl-4-yl)-propionic acid]	159 to 160 °C
COc1ccc(-c2ccc(C[C@H](NC(=O)C3(NC(=O)[C@@H](S)C(C)C)CCCC3)C(=O)O)cc2)cc1 (stereo in doubt) [2-{[1-(2-Mercapto-3-methyl-butanoylamino)-cyclopentanecarbonyl]-amino}-3-(4′-methoxy-biphenyl-4-yl)-propionic acid]	179 to 181 °C
CC(C)[C@H](S)C(=O)NC1(C(=O)N[C@@H](Cc2ccc3c(c2)CCCC3)C(=O)O)CCCC1 (stereo in doubt) [2-{[1-(2-Mercapto-3-methyl-butanoylamino)-cyclopentanecarbonyl]-amino}-3-(5,6,7,8-tetrahydro-naphthalen-2-yl)-propionic acid]	190 to 192 °C
CC(C)[C@H](S)C(=O)NC1(C(=O)N[C@@H](Cc2ccc(-c3cccs3)cc2)C(=O)O)CCCC1 (stereo in doubt) [2-{[1-(2-Mercapto-3-methyl-butanoylamino)-cyclopentanecarbonyl]-amino}-3-[4-(thiophen-2-yl)-phenyl]-propionic acid]	179 to 181 °C
CC[C@H](C)[C@H](S)C(=O)NC1(C(=O)NC(Cc2ccc(-c3cncnc3)cc2)C(=O)O)CCCC1 (stereo in doubt) [2-{[1-(2-Mercapto-3-methyl-pentanoylamino)-cyclopentanecarbonyl]-amino}-3-(4-pyrimidin-5-yl-phenyl)-propionic acid]	206 to 208 °C
CC[C@H](C)C(S)C(=O)NC1(C(=O)N[C@@H](Cc2ccc(-c3ccsc3)cc2)C(=O)O)CCCC1 (stereo in doubt) [2-{[1-(2-Mercapto-3-methyl-pentanoylamino)-cyclopentanecarbonyl]-amino}-3-[4-(thiophen-3-yl)-phenyl]-propionic acid]	99 to 101 °C
COc1cc(C[C@H](NC(=O)C2(NC(=O)[C@@H](S)C(C)C)CCCC2)C(=O)O)ccc1-c1ccccc1 (stereo in doubt) [2-{[1-(2-Mercapto-3-methylbutanoylamino)-cyclopentanecarbonyl]-amino}-3-(2-methoxybiphenyl-4-yl)-propionic acid]	121 to 123 °C
CC(C)[C@H](S)C(=O)NC1(C(=O)N[C@@H](Cc2ccc(-c3ccc(C(F)(F)F)cc3)cc2)C(=O)O)CCCC1 (stereo in doubt) [2-{[1-(2-Mercapto-3-methylbutanoylamino)-cyclopentanecarbonyl]-amino}-3-(4′-trifluoromethyl-biphenyl-4-yl)-propionic acid]	235 to 236 °C
CC(C)[C@H](S)C(=O)NC1(C(=O)N[C@@H](Cc2cccc3c2CCCC3)C(=O)O)CCCC1 (stereo in doubt) [2-{[1-(2-Mercapto-3-methylbutanoylamino)-cyclopentanecarbonyl]-amino}-3-(5,6,7,8-tetrahydro-naphthalen-1-yl)-propionic acid]	158 to 164 °C
O=C(O)[C@H](Cc1ccc(-c2ccc(C(F)(F)F)cc2)cc1)NC(=O)C1(NC(=O)[C@@H](S)Cc2ccccc2)CCCC1 (stereo in doubt) [2-{[1-(2-Mercapto-3-phenyl-propionylamino)-cyclopentanecarbonyl]-amino}-3-(4′-trifluoromethyl-biphenyl-4-yl)-propionic acid]	222 to 225 °C
